Results: patent publication US7074812B2, “Development of muscle mass in a mammal” (Nutraleutical Development Corporation, priority 2002, dated 2006)
Read-outs that look alike come from different tables or passages of the source.

Experiments:
[1] = tested on: males aged 30–59 years old
Procedure: In order to determine the effects of a nicotine supplement on human subjects, a double blind placebo controlled study was conducted. The study tested 32 males aged 30–59 years old. Each participant needed to have been weight-lifting and exercising on a consistent basis for at least one full year prior to the study. The study required each of the 32 males to remain consistent with their current exercise program (minimum of 3×'s per week), required not to add any new exercises to their current program, not add any new supplements to their diet during the six week study and to take the nicotine supplement 30 minutes prior to exercise. The nicotine supplement was 3 micrograms of nicotine in a standard 300 mg capsule containing polyethylene gycol (PEG) as a vehicle. The placebo capsule was identical in all aspects but contained no active (nicotine) ingredients.
The 32 males were subdivided into 4 groups, 2 placebo groups (8 took 1 capsule and 8 took 2 capsules with no active nicotine ingredients prior to exercise). In the other two groups (active), 8 subjects took 3 micrograms of nicotine and 8 took 6 micrograms of nicotine prior to exercise. The individuals were tested in the beginning and conclusion of the study in the following areas: (1) overall body fat/lean muscle ratio (ELG impedance test was used, which is 98% accurate compared to skinfold testing); (2) biceps; (3) upper leg muscle mass; and (4) 10 exercise repetition maximum, for both upper and lower body strength test (bench press and leg press). Participant workouts were logged by each individual in their own notebooks, to ensure consistency and compliance

[2] = tested on: healthy male mice; settings: 60 micrograms nicotine/ml drinking water
From the text: To study the effects of nicotine in the diet of mice in combination with exercise, 34 mice were divided into two equal groups. The diet of one group of mice was supplemented with nicotine added to the drinking water and the other group had plain water. Both groups received the same chow and water freely.
The experiment was a double-blind investigative study including a total of 34 healthy male mice that were approximately 9 weeks old, weighing approximately 35 grams. The mice were received one week prior to the start of the study to allow for a week of acclimation to the study site and the handlers. Because mice are active when it is dark and sleep when it is light, an automatic lighting system (12 hour dark/12 hour light) was set up for the duration of the study. The dark cycle was from 9 pm to 9 am and the light cycle from 9 am to 9 pm. The mice were subjected to a 3 week weighted exercise regimen on a treadmill wheel.
The 34 mice were divided in 2 groups of 17 mice each. Group 1 (nicotine treatment) received water laced with nicotine containing 60 micrograms nicotine/ml water and 10 mg saccharine tablet or pinch of a sugar substitute powder. The sugar substitute served to mask the bitter taste of nicotine in the water. Group 2 (placebo or control) followed the same weight exercise regimen as the nicotine treatment group. Their drinking water was plain water with the same amount of saccharine or sugar substitute as in Group 1. Each mouse had access to its water ad libitum daily during the study period, regardless of the group. Weekly water consumption was measured.
Mice in both groups were subjected to a weight/exercise regimen in the morning at the end of the dark cycle around 8:00 am. Weights were affixed to each animal at the beginning of the exercise. The weights were approximately 10% of body weight measured at Day -1 of the study, and adjusted based on body weight, measured weekly. The mice were exercised for 15 minutes per day or until exhaustion, 5 days a week for 3 weeks on a Mouse Forced Exercise Walking/Running Wheel System (Model 80800, Lafayette Instrument, North Lafayette, Ind. 47903). The largest part of the upper hind muscle of the mice was measured with a dial caliper every week. Two measurements on each leg were taken and the average was calculated.

[3] = 1 capsule (3 micrograms of nicotine), n = 8
[4] = 2 capsules (6 micrograms of nicotine), n = 8
[5] = Nicotine 1 or 2 capsules pooled, n = 16
[6] = individual subjects, six-week study

## CN1CCCC1c1cccnc1 (stereo not shown) [Nicotine, nicotine]
[1]; 1 capsule (3 micrograms of nicotine) prior to exercise, n = 8, bench press 10 repetition maximum
  Upper-body Strength, Change Over Study (Post-Pre), Median (Range): 10.00 (5.00, 20.00)
[1]; [3]
  Bicep Circumference, Change Over Study (Post-Pre), Median (Range): 0.45 (−0.20, 2.00) cm
  Body Fat %, Change Over Study (Post-Pre), Median (Range): −0.65 (−1.90, 0.70) %
  Body Mass Index, Change Over Study (Post-Pre), Median (Range): −0.13 (−0.79, 0.45)
  Lean Mass %, Change Over Study (Post-Pre), Median (Range): 0.65 (−0.70, 1.90) %
  Quadricep Circumference, Change Over Study (Post-Pre), Median (Range): 0.00 (−2.00, 2.50) cm
  Weight, Change Over Study (Post-Pre), Median (Range): −1.00 (−6.00, 3.00) lbs
[1]; 1 capsule (3 micrograms of nicotine), n = 8, leg press 10 repetition maximum
  Lower-body Strength, Change Over Study (Post-Pre), Median (Range): 65.00 (15.00, 90.00)
[1]; 2 capsules (6 micrograms of nicotine) prior to exercise, n = 8, bench press 10 repetition maximum
  Upper-body Strength, Change Over Study (Post-Pre), Median (Range): 10.00 (5.00, 20.00)
[1]; [4]
  Bicep Circumference, Change Over Study (Post-Pre), Median (Range): 0.63 (−1.50, 1.70) cm
  Body Fat %, Change Over Study (Post-Pre), Median (Range): −1.05 (−5.90, 0.10) %
  Body Mass Index, Change Over Study (Post-Pre), Median (Range): −0.08 (−1.22, 0.94)
  Lean Mass %, Change Over Study (Post-Pre), Median (Range): 1.05 (−0.10, 5.90) %
  Quadricep Circumference, Change Over Study (Post-Pre), Median (Range): 0.00 (−2.00, 3.00) cm
  Weight, Change Over Study (Post-Pre), Median (Range): −0.50 (−8.00, 6.75) lbs
[1]; 2 capsules (6 micrograms of nicotine), n = 8, leg press 10 repetition maximum
  Lower-body Strength, Change Over Study (Post-Pre), Median (Range): 80.00 (20.00, 320.00)
[1]; [5]
  Bicep Circumference, Change Over Study (Post-Pre), Median (Range): 0.45 (−1.50, 2.00) cm
  Body Fat %, Change Over Study (Post-Pre), Median (Range): −0.95 (−5.90, 0.70) %
  Body Mass Index, Change Over Study (Post-Pre), Median (Range): −0.11 (−1.22, 0.94)
  Lean Mass %, Change Over Study (Post-Pre), Median (Range): 0.95 (−0.70, 5.90) %
  Lower-body Strength, Change Over Study (Post-Pre), Median (Range): 70.00 (15.00, 320.00)
  Quadricep Circumference, Change Over Study (Post-Pre), Median (Range): 0.00 (−2.00, 3.00) cm
  Upper-body Strength, Change Over Study (Post-Pre), Median (Range): 10.00 (5.00, 20.00)
  Weight, Change Over Study (Post-Pre), Median (Range): −0.75 (−8.00, 6.75) lbs
[1]; active (nicotine) group, six-week study
  subjects who noted an increase in overall endurance, leg strength and a strong thermogenic effect: 13 of the 16
[1]; active (nicotine) group, placebo five of the sixteen
  individuals who made significant changes in either body, strength levels or muscle mass or in all three test areas: Fifteen of the sixteen
[1]; individual subject, six-week study
  change of overall body fat, one subject: 32%
[1]; [6]
  increase of leg strength, five subjects: over 25%
  increase of leg strength, two of the five subjects: 40%
[2]; 3 weeks
  increase in leg diameter versus control group, overall: significantly greater increase in leg diameter
[2]; control 0.5 mm
  average increase of leg diameter, average of day 7, 14 and 21 compared with day 0: 1.7 mm
[2]; day 7, control 0.6 mm
  average increase of leg diameter compared to day 0: 1.6 mm
[2]; day 14, control 2.1 mm
  average increase of leg diameter compared to day 0: 2.8 mm
[2]; day 21, control 1.1 mm decrease
  increase of leg diameter compared to day 0: 0.7 mm
